The target in test [1] is T1, endothelin receptor (smooth muscle A7r5 cells derived from rat aorta) (Rattus norvegicus, UniProt P26684).
T1 construct: Smooth muscle A7r5 cells derived from rat aorta; endogenous in cells; host or cells: A7r5 (rat aortic smooth muscle)
T1 sequence (P26684 21-426): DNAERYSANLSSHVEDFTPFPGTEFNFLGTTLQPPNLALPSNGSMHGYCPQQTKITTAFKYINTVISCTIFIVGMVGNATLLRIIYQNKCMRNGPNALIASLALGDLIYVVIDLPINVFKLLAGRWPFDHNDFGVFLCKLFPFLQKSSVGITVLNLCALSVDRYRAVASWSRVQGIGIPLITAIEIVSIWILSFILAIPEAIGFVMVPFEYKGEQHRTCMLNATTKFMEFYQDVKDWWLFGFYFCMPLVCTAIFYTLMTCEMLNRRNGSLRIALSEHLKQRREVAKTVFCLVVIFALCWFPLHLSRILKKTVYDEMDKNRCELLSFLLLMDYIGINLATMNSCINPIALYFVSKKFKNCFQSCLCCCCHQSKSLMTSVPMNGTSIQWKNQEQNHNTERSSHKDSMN
Nature of the test: Inhibitory effect on the binding of 125I-endothelin-1 to its receptor (rat aorta smooth muscle A7r5 cells). The settings on record: 25 pM 125I-endothelin-1, 37° C., 1 hr, read-out: IC50 binding: 50% inhibition of the specific binding of 125I-endothelin-1 to its receptor. On the procedure: Inhibitory Effect on the Binding of ^125 I-Endothelin-1 to its Receptor
Smooth muscle A7r5 cells derived from rat aorta were incubated with 25 pM ^125 I-endothelin-1 at 37° C. for 1 hr in the presence or absence of a compound (I) of the present invention. After completion of the reaction, ^125 I-endothelin-1 bound to membrane fraction was separated by filtrating through glass fiber filters and the radioactivity was determined with a gamma-counter. The specific binding was calculated by subtracting the nonspecific binding which was determined in the presence of 10^-7 M non-radioactive endothelin-1 from the total binding.

The test system of test [2] is endothelin-1-induced increase in cytosolic calcium ion concentration, rat aortic smooth muscle A7r5 cells. Nature of the test: Inhibition of the endothelin-1-induced increase in cytosolic calcium ion concentration in A7r5 cells. The format is cell-based. Particulars: fura-2, compound 1 min before 10^-8 M endothelin-1, read-out: IC50 (Ca^2+): inhibition of endothelin-1-induced increase in cytosolic calcium concentration. On the procedure:
Inhibition of the Endothelin-1-induced Increase in Cytosolic Calcium Ion Concentration
To a cuvette was put a suspension of rat aortic smooth muscle A7r5 cells (Dainippon Pharmaceutical Co., Ltd.) on which 2 μM fura-2 (Dojin) has been loaded. The change in fluorescence intensity was determined with a calcium analyzer (CAF100, Nippon Bunkou Co.). In the determination, the excitation was performed at 340 nm and 380 nm and the recording at 510 nm. The cytosolic calcium concentration was calculated according to the method of Grynkiewicz et al., J. Biol. Chem., 260., pp. 3440-3450, 1985.
The experiment was carried out by adding a compound (I) of the present invention to the cell suspension in cuvette, incubating for 1 min, adding 10^-8 M endothelin-1, and measuring the change in fluorescence intensity.

For test [3], the target named is T2, endothelin-1-induced contraction, isolated rat thoracic aorta (Rattus norvegicus, UniProt P26684).
T2 construct: specimens isolated from rat thoracic aorta; from tissue; host or cells: rat thoracic aorta, transverse strips
T2 sequence (P26684 21-426): T1 sequence (P26684 21-426)
Nature of the test: Inhibition of endothelin-1-induced contraction in isolated rat thoracic aorta. The settings on record: 10^-8, 3×10^-8, 10^-7 M, 10 min, 37° C. The protocol:
Inhibition of Endothelin-1-induced Contradiction in Isolated Rat Thoracic Aorta
Transverse Stip specimens isolated from rat thoracic aorta were suspended in modified Locke-Ringer solution at 37° C. while aerating with mixed gas (95% O2 +5% CO2), and the isometric tension was recorded. Four specimens derived from each rat were used in the test. Thus, three specimens were treated with compound 1c (disodium salt; prepared in Example 1 or 3) of different concentration (10^-8 M, 3×10^-8 M, and 10^-7 M) for 10 min and the rest was untreated before the measurement of isometric tension.

The test system of test [4] is endothelin-1-induced hypertension, pithed rat. Briefly: Inhibition of endothelin-1-induced hypertension in pithed rat. The format is in vivo. Particulars: intravenous, dose between 0.01 and 1 mg/kg. On the procedure:
Inhibition of Endothelin-1-induced Hypertension in Pithed Rat
Under ether anesthesia, a stainless-steal rod (diameter: 2 mm) was inserted from right orbital to spinal end of a rat. The resultant pithed rat was placed under artificial respiration and the change in blood pressure was recorded. Drugs (endothelin-1 and compound 1c prepared in Example 1 or 3) were administered intravenously.

Where two headings read alike, the source gives them in different places.

Turning to `CC1(C)CC[C@]2(C(=O)O)CC[C@]3(COC(=O)/C=C/c4cc(O)ccc4NC(=O)/C=C/C(=O)O)C(=CCC4[C@@]5(C)CCC(=O)C(C)(C)C5CC[C@]43C)[C@@H]2C1` (single isomer, unassigned) [Compound 1b], the IC50 worked out at 0.5 nM in test [1] and 2.6 nM in test [2] (Rattus norvegicus).
`CC1(C)CC[C@]2(C(=O)O)CC[C@]3(COC(=O)/C=C/c4cc(O)ccc4NC(=O)/C=C/C(=O)O)C(=CCC4[C@@]5(C)CCC(=O)C(C)(C)C5CC[C@]43C)[C@@H]2C1` (single isomer, unassigned) [Compound 1c]: the “shift of endothelin-1 concentration-contraction curve” value in test [3] is recorded as “shifts the concentration-contradiction curve to right in a concentration-dependent manner”. Moreover, the Kb in test [3] (read-out: pA2 value, endothelin-1 concentration-contraction curve (converted)) was 1.58 nM. The “decrease of blood pressure” value in test [4] was “decreased the blood pressure in a dose-dependent manner”. Besides, the results for the IC50 in test [1] and in test [2] were 0.7 nM and 2.6 nM, respectively.
On to `CC1(C)CC[C@]2(C(=O)O)CC[C@]3(COC(=O)/C=C/c4cc(O)ccc4N)C(=CCC4[C@@]5(C)CCC(=O)C(C)(C)C5CC[C@]43C)[C@@H]2C1` (stereo partly drawn) [Compound 1a], for which the IC50 amounted to 24 nM in test [1] and 4.5 nM in test [2] (Rattus norvegicus).
The corresponding values for `CC1(C)CC[C@]2(C(=O)O)CC[C@]3(COC(=O)/C=C/c4cc(O)ccc4NC(=O)/C=C\C(=O)O)C(=CCC4[C@@]5(C)CCC(=O)C(C)(C)C5CC[C@]43C)[C@@H]2C1` (stereo partly drawn) [Compound 1d] are 3.4 nM and 3 nM.
With `CC1(C)CC[C@]2(C(=O)O)CC[C@]3(COC(=O)/C=C/c4cc(O)ccc4NC(=O)CCC(=O)O)C(=CCC4[C@@]5(C)CCC(=O)C(C)(C)C5CC[C@]43C)[C@@H]2C1` (stereo partly drawn) [Compound 1e], the IC50 in test [1] was 3.6 nM; in test [2] (Rattus norvegicus) it was 3.5 nM.
In the same order, the values of `CC1(C)CC[C@]2(C(=O)O)CC[C@]3(COC(=O)/C=C/c4cc(O)ccc4NC(=O)C(=O)O)C(=CCC4[C@@]5(C)CCC(=O)C(C)(C)C5CC[C@]43C)[C@@H]2C1` (stereo partly drawn) [Compound 1g] are 1.8 nM and 2.5 nM.
In the case of `CC1(C)CC[C@]2(C(=O)O)CC[C@]3(COC(=O)/C=C/c4cc(O)ccc4NC(=O)CC(=O)O)C(=CCC4[C@@]5(C)CCC(=O)C(C)(C)C5CC[C@]43C)[C@@H]2C1` (stereo partly drawn) [Compound 1h], the IC50 in test [1] was found to be 9 nM; in test [2] (Rattus norvegicus) it was 5.6 nM.
On to `CC1(C)CC[C@]2(C(=O)O)CC[C@]3(COC(=O)/C=C/c4cc(O)ccc4NC(=O)CCCC(=O)O)C(=CCC4[C@@]5(C)CCC(=O)C(C)(C)C5CC[C@]43C)[C@@H]2C1` (stereo partly drawn) [Compound 1i], for which the IC50 in test [1] came out at 6.6 nM; in test [2] (Rattus norvegicus), 4.6 nM.
Regarding `CC1(C)CC[C@]2(C(=O)O)CC[C@]3(COC(=O)/C=C/c4cc(O)ccc4NS(=O)(=O)O)C(=CCC4[C@@]5(C)CCC(=O)C(C)(C)C5CC[C@]43C)[C@@H]2C1` (stereo partly drawn) [Compound 1k], the IC50 amounted to 2.9 nM in test [1] and 2.8 nM in test [2] (Rattus norvegicus).
In the same order, the values of `COC(=O)/C=C/C(=O)Nc1ccc(O)cc1/C=C/C(=O)OC[C@@]12CC[C@@]3(C(=O)O)CCC(C)(C)C[C@H]3C1=CCC1[C@@]3(C)CCC(=O)C(C)(C)C3CC[C@]12C` (stereo partly drawn) [Compound 1m] are 5 nM and 2.7 nM.
In the case of `CC1(C)CC[C@]2(C(=O)O)CC[C@]3(COC(=O)/C=C/c4cc(O)ccc4NCC(=O)O)C(=CCC4[C@@]5(C)CCC(=O)C(C)(C)C5CC[C@]43C)[C@@H]2C1` (stereo partly drawn) [Compound 1n], the IC50 in test [1] and in test [2] (Rattus norvegicus) was 3 nM throughout.
Regarding `CC1(C)CC[C@]2(C(=O)O)CC[C@]3(COC(=O)/C=C/c4ccc(O)c(O)c4)C(=CCC4[C@@]5(C)CCC(=O)C(C)(C)C5CC[C@]43C)[C@@H]2C1` (stereo partly drawn) [Compound 50-235, reference compound], the IC50 came out at 76 nM in test [1] and 10 nM in test [2] (Rattus norvegicus).

(Values after US5463107A, “Triterpene derivatives and endothelin-receptor antagonists containing the same” (Shionogi & Co., Ltd., priority 1993, dated 1995).)
